target: T1, human recombinant mGluR5 (Homo sapiens, UniProt P41594); assay: positive modulation of mGluR5, calcium based FLIPR assay; settings: HEK 293 cell line expressing human recombinant mGluR5; EC50 of the modulation from peak Ca fluorescence signal after glutamate at approx. 5% basal stimulation
T1 construct: expressed in transfected cells; host or cells: HEK 293
Experimental: The positive modulation of mGluR5 is measured in a HEK 293 cell line expressing human recombinant mGluR5 and is detected with calcium based FLIPR assay. The cells are cultured with DMEM supplemented with 10% FCS, 2 μg/mL tetracycline, 100 μg/mL hygromycin and 500 μg/mL geneticin. The cell culture media is exchanged for tetracycline-free cell culture media 3-7 days before the assay. One day before the assay the cell culture medium is exchanged to DMEM without glutamine and phenol red and supplemented with 10% FCS, 100 μg/mL hygromycin and 500 μg/mL geneticin. On the assay day, the medium of the subconfluent cultures is removed and the cells are detached by addition of 2.5 ml EDTA (0.02%) per 175 cm2 culture flask for 1 minute. The cells are resuspend in Ringer solution (140 mM NaCl, 5 mM KCl, 2.5 mM CaCl2, 1.5 mM MgCl2, 5 mM Glucose, 10 mM Hepes; adjusted to pH 7.4 with NaOH), pooled and Ringer solution added to adjust the volume to 50 mL. The cell suspension is centrifuged for […] at 1500 U/min (425 g). The supernatant is removed and the cells washed a second time with 50 ml fresh Ringer solution and centrifuged again as before. The supernatant is again removed and the pellet resuspended in Ringer solution to 1,000,000 cells/ml (1×10^6 cells/mL). The cells are plated onto BD BioCoat Poly-D-Lysine 384 well plates (20.000 cells/well; 20 μl/well). The lid covered plates are then incubated until use at 37° C./10% CO2. For dye loading, 20 μl of Calcium-4 assay kit solution (prepared according to the manufacturer's description in Ringer solution) are added to the cells and the plates are incubated for […] 37° C. and then […] at room temperature.
Controls, Compound Dilution and Assay Execution:
Each assay plate contained wells with “high” and “low” controls:
Low controls 1% DMSO/ringer solution+basal glutamate activation (defined as 100% CTL).
High controls 10 μM CDPPB+basal glutamate activation (defined as 200% CTL).
Test compounds are dissolved and diluted in DMSO to 100-fold the desired concentrations. In a second step, the compounds are diluted in Ringer solution such that the compounds are 4-fold more concentrated than the desired final assay concentration. The final DMSO concentration was 1%.
20 μl of each compound solution are then transferred to the assay plate and the Ca2+ kinetic is measured to determine any intrinsic compound activity. After 5 mM incubation in the FLIPR device, the second stimulation with 20 μl of glutamate in Ringer solution (glutamate concentration adjusted to approximately 5% basal stimulation of the maximal possible glutamate effect) is added and the kinetic Ca2+ response of the wells was measured for the modulation effect.
The peak height of the Ca release related fluorescence signal (9-66) is used for the EC50. The EC50 of the modulation is calculated over a nonlinear regression with GraphPad Prism (Table 1).

T1 sequence (P41594 21-1212): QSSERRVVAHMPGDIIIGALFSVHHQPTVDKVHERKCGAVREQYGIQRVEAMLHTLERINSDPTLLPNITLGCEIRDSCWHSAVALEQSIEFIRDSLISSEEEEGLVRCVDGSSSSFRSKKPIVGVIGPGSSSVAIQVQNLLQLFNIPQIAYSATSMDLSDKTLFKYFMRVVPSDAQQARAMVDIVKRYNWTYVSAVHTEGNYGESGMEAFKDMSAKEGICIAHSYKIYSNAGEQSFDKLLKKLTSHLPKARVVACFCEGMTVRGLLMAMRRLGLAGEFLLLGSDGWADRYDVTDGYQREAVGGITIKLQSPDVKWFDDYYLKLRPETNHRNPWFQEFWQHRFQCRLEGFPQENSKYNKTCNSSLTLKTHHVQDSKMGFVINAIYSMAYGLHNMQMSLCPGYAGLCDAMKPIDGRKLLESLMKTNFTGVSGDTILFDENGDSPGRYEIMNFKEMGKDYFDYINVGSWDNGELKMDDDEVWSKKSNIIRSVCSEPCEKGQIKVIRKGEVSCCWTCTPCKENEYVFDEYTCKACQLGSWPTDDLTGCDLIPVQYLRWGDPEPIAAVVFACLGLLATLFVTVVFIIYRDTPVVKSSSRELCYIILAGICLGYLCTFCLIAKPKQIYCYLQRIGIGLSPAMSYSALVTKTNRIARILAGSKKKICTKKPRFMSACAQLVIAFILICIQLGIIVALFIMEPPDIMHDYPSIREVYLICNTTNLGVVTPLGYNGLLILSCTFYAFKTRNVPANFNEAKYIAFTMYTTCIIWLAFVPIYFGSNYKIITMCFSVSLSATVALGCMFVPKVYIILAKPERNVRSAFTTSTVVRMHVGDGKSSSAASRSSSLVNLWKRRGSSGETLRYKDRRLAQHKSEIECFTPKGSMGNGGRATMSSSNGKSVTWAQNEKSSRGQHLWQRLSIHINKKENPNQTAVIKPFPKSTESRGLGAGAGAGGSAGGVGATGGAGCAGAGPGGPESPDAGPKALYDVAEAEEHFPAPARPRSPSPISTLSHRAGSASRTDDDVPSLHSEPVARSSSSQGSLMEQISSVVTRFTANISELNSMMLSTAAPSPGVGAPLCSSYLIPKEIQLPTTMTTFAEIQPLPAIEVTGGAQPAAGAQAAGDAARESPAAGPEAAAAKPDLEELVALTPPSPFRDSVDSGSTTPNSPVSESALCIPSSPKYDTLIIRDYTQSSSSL

| EC50 [nM] | SMILES |
| --- | --- |
| 1230 | Cc1cc(-c2cc(-c3ccccc3)nn2CC(=O)N2CCc3nc(C)sc3CC2)ccn1 [Example 7.01.064] |
| 173 | CCc1cc(-c2ccc(F)c(C)c2)nn1CC(=O)N1CCc2ccc(OC)cc2CC1 [Example 7.01.065] |
| 153 | CCc1cc(-c2ccc(F)c(C)c2)nn1CC(=O)N1CCc2cc(-c3ccccc3)nnc2CC1 [Example 7.01.066] |
| 122 | CCc1cc(-c2ccc(F)c(C)c2)nn1CC(=O)N1CCc2nc(C)sc2C1 [Example 7.01.067] |
| 236 | CCc1cc(-c2ccc(F)c(C)c2)nn1CC(=O)N1CCc2nc(N)sc2C1 [Example 7.01.068] |
| 380 | CCc1cc(-c2ccc(F)c(C)c2)nn1CC(=O)N1CCc2nc(NC(C)=O)sc2CC1 [Example 7.01.069] |
| 128 | CCc1cc(-c2ccc(F)c(C)c2)nn1CC(=O)N1CCc2ccc(C(=O)OC)cc2CC1 [Example 7.01.070] |
| 233 | CCc1cc(-c2ccc(F)c(C)c2)nn1CC(=O)N1CCc2ccsc2CC1 [Example 7.01.071] |
| 245 | CCc1cc(-c2ccc(F)c(C)c2)nn1CC(=O)N1CCc2ccc(N)cc2CC1 [Example 7.01.072] |
| 84 | CCc1cc(-c2ccc(F)c(C)c2)nn1CC(=O)N1CCc2ncsc2CC1 [Example 7.01.073] |
| 91 | CCc1cc(-c2ccc(F)c(C)c2)nn1CC(=O)N1CCc2nc(C)sc2CC1C (stereo not shown) [Example 7.01.074] |
| 87 | CCc1cc(-c2ccc(F)c(C)c2)nn1CC(=O)N1CCc2oc(C)nc2C1 [Example 7.01.075] |
| 412 | CCc1cc(-c2ccc(F)c(C)c2)nn1CC(=O)N1CCc2ccsc2C1 [Example 7.01.076] |
| 110 | CCc1cc(-c2ccc(F)c(C)c2)nn1CC(=O)N1CCc2nc(C)oc2C1 [Example 7.01.077] |
| 30 | Cc1cc(-c2cc(-c3ccccc3)n(CC(=O)N3CCc4cc(=O)n(C)nc4CC3)n2)ccc1F [Example 7.01.081] |
| 34 | Cc1cc(-c2cc(-c3ccccc3)n(CC(=O)N3CCc4nc5ccccc5c(C)c4CC3)n2)ccc1F [Example 7.01.084] |
| 26 | Cc1nc2c(o1)CCN(C(=O)Cn1nc(-c3ccc(F)c(C)c3)cc1-c1ccccc1)C2 [Example 7.01.085] |
| 274 | Cc1cc(-c2cc(-c3ccccc3)n(CC(=O)N3CCc4ncc(C)n4CC3)n2)ccc1F [Example 7.01.086] |
| 22 | Cc1nc2c(s1)CN(C(=O)Cn1nc(-c3ccc(F)c(C)c3)cc1-c1ccccc1)CC2 [Example 7.01.089] |
| 37 | COc1ccc2c(n1)CCN(C(=O)Cn1nc(-c3ccc(F)c(C)c3)cc1-c1ccccc1)CC2 [Example 7.01.091] |
| 35 | Cc1cc(-c2cc(-c3ccccc3)n(CC(=O)N3CCc4nc(N)sc4C3)n2)ccc1F [Example 7.01.093] |
| 90 | Cc1cc(-c2cc(-c3ccccc3)n(CC(=O)N3CCc4nc(N)oc4CC3)n2)ccc1F [Example 7.01.094] |
| 477 | CCc1cc(-c2ccc(F)c(C)c2)nn1CC(=O)N1CCc2cn[nH]c2CC1 [Example 7.01.098] |
| 13 | Cc1nc2c(s1)CCN(C(=O)Cn1nc(-c3ccc(F)cc3)cc1-c1ccc(F)cc1)CC2 [Example 7.02.010] |
| 15 | Cc1nc2c(s1)CCN(C(=O)Cn1nc(-c3ccc(F)c(C)c3)cc1-c1ccccc1)CC2 [Example 7.02.015] |
| 21 | Cc1nc2c(s1)CN(C(=O)Cn1nc(-c3ccc(F)c(C)c3)cc1-c1ccccc1)C2 [Example 7.02.020] |
| 12 | Cc1cc(-c2cc(-c3ccccc3)n(CC(=O)N3CCc4nc(N)sc4CC3)n2)ccc1F [Example 7.02.023] |
| 29 | CCc1cc(-c2ccc(F)c(C)c2)nn1CC(=O)N1CCc2nc(C)sc2CC1 [Example 7.02.024] |

Second part, the compound before the results:

| SMILES | EC50 [nM] |
| --- | --- |
| Cc1cc(-c2cc(-c3ccccc3)n(CC(=O)N3CCc4ncccc4C3)n2)ccc1F [Example 7.01.078] | 78 |
| COc1cc2c(cc1OC)CCN(C(=O)Cn1nc(-c3ccc(F)c(C)c3)cc1-c1ccccc1)CC2 [Example 7.01.079] | 447 |
| Cc1cc(-c2cc(-c3ccccc3)n(CC(=O)N3CCc4cnc(Nc5ccccc5)nc4CC3)n2)ccc1F [Example 7.01.080] | 277 |
| Cc1cc(-c2cc(-c3ccccc3)n(CC(=O)N3CCc4cc(-c5ccccc5)nnc4CC3)n2)ccc1F [Example 7.01.082] | 66 |
| COc1ccc2c(c1)CCN(C(=O)Cn1nc(-c3ccc(F)c(C)c3)cc1-c1ccccc1)CC2 [Example 7.01.083] | 86 |
| Cc1cc(-c2cc(-c3ccccc3)n(CC(=O)N3CCc4ccccc4C3)n2)ccc1F [Example 7.01.087] | 125 |
| COC(=O)c1ccc2c(c1)CCN(C(=O)Cn1nc(-c3ccc(F)c(C)c3)cc1-c1ccccc1)CC2 [Example 7.01.088] | 29 |
| Cc1cc(-c2cc(-c3ccccc3)n(CC(=O)N3CCc4ccccc4CC3)n2)ccc1F [Example 7.01.090] | 240 |
| Cc1cc(-c2cc(-c3ccccc3)n(CC(=O)N3CCc4ncnc(-c5ccccc5)c4CC3)n2)ccc1F [Example 7.01.092] | 33 |
| Cc1cc(-c2cc(-c3ccccc3)n(CC(=O)N3CCc4ccc(N)cc4CC3)n2)ccc1F [Example 7.01.095] | 53 |
| CC(=O)Nc1ccc2c(c1)CCN(C(=O)Cn1nc(-c3ccc(F)c(C)c3)cc1-c1ccccc1)CC2 [Example 7.01.097] | 109 |
| Nc1nc2c(s1)CCN(C(=O)Cn1nc(-c3ccc(F)cc3)cc1-c1ccc(F)cc1)CC2 [Example 7.02.001, 1-(2-Amino-4,5,7,8-tetrahydro-thiazolo (4,5-d)azepin-6-yl)-2-[3,5-bis-(4-fluoro-phenyl)-pyrazol-1-yl]-ethanone] | 55 |
| O=C(Cn1nc(-c2ccccc2)cc1-c1ccccc1)N1CCc2nc(-c3ccccc3)nc(O)c2C1 [Example 7.02.002] | 1170 |
| O=C(Cn1nc(-c2ccccc2)cc1-c1ccccc1)N1CCN(c2ccccc2)C(=O)C1 [Example 7.02.003] | 925 |
| O=C(Cn1nc(-c2ccccc2)cc1-c1ccccc1)N1CCc2ncsc2CC1 [Example 7.02.004] | 689 |
| O=C(Cn1nc(-c2ccccc2)cc1-c1ccccc1)N1CCc2nc(-c3ccccc3)ncc2C1 [Example 7.02.005] | 1260 |
| COc1cc2c(cc1OC)CN(C(=O)Cn1nc(-c3ccccc3)cc1-c1ccccc1)CC2 [Example 7.02.006] | 1950 |
| O=C(Cn1nc(-c2ccccc2)cc1-c1ccccc1)N1CCC(c2noc3ccccc23)CC1 [Example 7.02.007] | 600 |
| Cc1nc(C2CCN(C(=O)Cn3nc(-c4ccccc4)cc3-c3ccccc3)CC2)oc1C [Example 7.02.008] | 997 |
| O=C(Cn1nc(-c2ccccc2)cc1-c1ccccc1)N1CCN(c2nc3ccccc3o2)CC1 [Example 7.02.009] | 220 |
| Cc1nc2c(s1)CN(C(=O)Cn1nc(-c3ccc(F)cc3)cc1-c1ccc(F)cc1)C2 [Example 7.02.011] | 37 |
| COc1cccc(N2CCN(C(=O)Cn3nc(-c4ccc(F)cc4)cc3-c3ccc(F)cc3)CC2=O)c1 [Example 7.02.012] | 47 |
| Cc1cc(-c2cc(-c3ccccc3)n(CC(=O)N3CCC(c4ccccn4)CC3)n2)ccc1F [Example 7.02.013] | 92 |
| Cc1cc(-c2cc(-c3ccccc3)n(CC(=O)N3CC=C(c4ncccn4)CC3)n2)ccc1F [Example 7.02.014] | 21 |
| Cc1cc(-c2cc(-c3ccccc3)n(CC(=O)N3CCC(c4ncccn4)CC3)n2)ccc1F [Example 7.02.016] | 110 |
| Cc1cc(-c2cc(-c3ccccc3)n(CC(=O)N3CCC(c4nnc(C(C)C)o4)CC3)n2)ccc1F [Example 7.02.017] | 68 |
| Cc1cc(-c2cc(-c3ccccc3)n(CC(=O)N3CCC(C)(c4nnc(C(C)C)o4)CC3)n2)ccc1F [Example 7.02.018] | 693 |
| Cc1nnc(C2CCN(C(=O)Cn3nc(-c4ccc(F)c(C)c4)cc3-c3ccccc3)CC2)o1 [Example 7.02.019] | 36 |
| COc1cc(C2CCN(C(=O)Cn3nc(-c4ccc(F)c(C)c4)cc3-c3ccccc3)CC2)ncn1 [Example 7.02.021] | 55 |
| COc1cc(C2=CCN(C(=O)Cn3nc(-c4ccc(F)c(C)c4)cc3-c3ccccc3)CC2)ncn1 [Example 7.02.022] | 11 |

— patent publication US8741892B2, “Compounds” (Boehringer Ingelheim International GmbH, priority 2011, dated 2014)
